US20090176817A1, “Method of Treatment of Diarrhea-Predominant Irritable Bowel Syndrome in a Subject” (priority 2005, published 2009)
Like-named read-outs stand apart in the source and are kept apart here.

Key:
[1] = system: purified human alpha-1 acid glycoprotein (AAG); type: in vitro ADME
Experimental: (§1) Protein binding was also evaluated in an in vitro study in human, mouse, rat, and dog plasma using equilibrium dialysis (12-14K molecular weight cut-off membrane). This study measured the binding of (^14C)-cilansetron in plasma at nominal concentrations (30, 90, and 300 ng/mL) which are much higher than those encountered in vivo in humans. This study also measured the binding of (^14C)-cilansetron to purified human serum albumin at cilansetron concentrations ranging from 30-3000 ng/mL and to purified human alpha-1 acid glycoprotein (AAG) at concentrations ranging from 30-10000 ng/mL.

[2] = biological target: purified human serum albumin (Homo sapiens, UniProt P02768); type: in vitro ADME
Experimental: as §1

[3] = type: in vitro ADME
Experimental: as §1

[4] = system: diarrhea-predominant IBS subjects; assay: Study S241.3.011: IBS-QOL; type: in vivo, human; settings: for Mean change in IBS-QoL subscale Body Image / Mean change in IBS-QoL subscale Dysphoria / Mean change in IBS-QoL subscale Food Avoidance / Mean change in IBS-QoL subscale Health Worry / Mean change in IBS-QoL subscale Interference with Activity / Mean change in IBS-QoL subscale Relationship / Mean change in IBS-QoL subscale Sexual / Mean change in IBS-QoL subscale Social Reaction / Mean change in IBS-QoL, Overall: RR (four-week rerandomization) period
Text: Studies S24 1.3.OO6, S24 1.3.0 1 1, and S24 1.3.009 used the following efficacy measurements: • The subjects answered the following three questions with “yes” or “no” using a phone diary at the end of each week: • a) During the last week, did you experience adequate relief of your IBS symptoms, such as abdominal pain, abdominal discomfort, abnormal bowel habits? • b) During the last week, did you experience adequate relief of your abdominal pain and/or discomfort? • c) During the last week, did you experience adequate relief of your abnormal bowel habits? • The subjects rated the following symptoms using the phone diary at the end of each day: • abdominal pain/discomfort (five-point scale); • stool consistency (seven-point Bristol Stool Scale); • stool frequency (number of bowel movements each day); • urgency (five-point scale); • straining (yes or no); • feeling of incomplete defecation (yes or no); • bloating or feeling of abdominal distension (five-point scale). • In Studies S241 A006 and S241.3.009, subjects completed the IBS-QOL Survey at Baseline (Day 1) and at the end of treatment. In Study S24 1.3.0 1 1, subjects completed the IBS-QOL Survey at Baseline (Day 1), at the end of the three-month treatment period, and at the end of rerandomized treatment.
Other secondary efficacy parameters for all three studies included: • Responder rate for the weekly diary questions on adequate relief at each month, where a responder for a month (monthly responder) was defined as a subject who answered the weekly question with “yes” at least twice for that month. The responder rate was the percentage of responders within a treatment group. The all-month responder rate for the weekly diary questions on adequate relief was also evaluated, where an all-month responder was defined as a subject who answered the weekly question with “yes” at least twice for each month. The all-month responder rate was the percentage of all-month responders within a treatment group; • Adequate relief rate for the weekly diary questions was calculated for each subject as the number of weekly assessments with adequate relief (“yes”) divided by the total number of weekly assessments; • Percentage of subjects with adequate relief for the weekly diary questions at each week; • Daily diary questions regarding abdominal pain/discomfort (five-point scale), stool consistency (seven-point scale), stool frequency (number of bowel movements each day), straining (yes or no), urgency (five-point scale), feeling of incomplete evacuation (yes or no), and bloating or feeling of abdominal distention (five-point scale); • QOL data assessed by the IBS-QOL questionnaire; and • Question to determine the interruption of activities.

clinical = settings: human, in vivo; for AUC: AUC (0-τ)
Experimental: Subjects were treated with a single oral dose of cilansetron 8 mg (tablet) on Day 1, followed by 8 mg TID for 5 days (Days 2-6) and a single 8 mg dose on the morning of Day 7. Young subjects ranged in age from 19-45 years, and elderly from 66-79 years. Serial blood samples were collected up to 24 hours postdose on Days 1 and 7, and cilansetron pharmacokinetic parameters were calculated. Doses on pharmacokinetic sampling days were administered under fasted conditions.
Young subjects ranged in age from 19-45 years, and elderly from 66-79 years. Serial blood samples were collected up to 24 hours postdose on Days 1 and 7, and cilansetron pharmacokinetic parameters were evaluated. Doses on pharmacokinetic sampling days were administered under fasted conditions.

serum proteins = assay: in vitro; settings: both, human, plasma, Plasma protein bound
Experimental: The ex vivo protein binding of cilansetron and its 4-hydroxy metabolites has been measured in serum samples collected in a multiple-dose study in healthy and renally impaired male and female subjects, aged 33-74 years. […] Healthy subjects were matched to renally-impaired subjects with respect to age, weight, gender, and smoking status. All subjects received oral cilansetron 2 mg TID on Days 1 to 5, and a single dose on the morning of Day 6.

CYP3A5 = settings: hepatocytes

purified human serum albumin, sequence (P02768 25-609): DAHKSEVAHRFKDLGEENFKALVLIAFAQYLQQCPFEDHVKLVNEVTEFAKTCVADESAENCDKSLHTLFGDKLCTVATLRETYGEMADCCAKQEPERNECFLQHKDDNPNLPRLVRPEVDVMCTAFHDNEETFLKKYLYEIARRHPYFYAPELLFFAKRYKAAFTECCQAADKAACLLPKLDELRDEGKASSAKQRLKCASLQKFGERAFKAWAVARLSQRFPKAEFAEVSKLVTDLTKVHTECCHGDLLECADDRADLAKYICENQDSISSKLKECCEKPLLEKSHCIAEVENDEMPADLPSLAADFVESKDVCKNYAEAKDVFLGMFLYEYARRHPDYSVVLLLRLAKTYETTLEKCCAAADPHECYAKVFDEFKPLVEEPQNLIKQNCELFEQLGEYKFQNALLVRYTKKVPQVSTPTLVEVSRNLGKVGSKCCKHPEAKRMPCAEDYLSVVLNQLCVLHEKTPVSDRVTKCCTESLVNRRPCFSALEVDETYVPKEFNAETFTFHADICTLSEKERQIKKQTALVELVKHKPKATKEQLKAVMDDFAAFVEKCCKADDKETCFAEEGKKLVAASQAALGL

Cc1nccn1C[C@H]1CCc2c(c3cccc4c3n2CCC4)C1=O [Cilansetron, (R)-(−)-4,5,6,8,9,10-hexahydro-10-[(2-methyl-1H-imidazol-1-yl)methyl]-11H-pyrido-[3,2,1-jk]-carbazol-11-one]
Binding to AAG [1]: around 90% | Binding to human albumin [2]: 65.9% | Plasma binding ([3]; dog): 86.5% | Plasma binding ([3]; mouse): 83.3% | Plasma binding ([3]; rat): 88.2% | Overall IBS-QOL score, mean change from rerandomization Baseline ([4]; C/C): 0.9 | Overall IBS-QOL score, mean change from rerandomization Baseline ([4]; C/P): −4.9 | Overall IBS-QOL score, mean change from rerandomization Baseline ([4]; P/C): 5.1 | Mean change in IBS-QoL subscale Body Image ([4]; C/C group): −0.8 | Mean change in IBS-QoL subscale Dysphoria ([4]; C/C group): +2.2 | Mean change in IBS-QoL subscale Food Avoidance ([4]; C/C group): +0.6 | Mean change in IBS-QoL subscale Health Worry ([4]; C/C group): +0.2 | Mean change in IBS-QoL subscale Interference with Activity ([4]; C/C group): +1.4 | Mean change in IBS-QoL subscale Relationship ([4]; C/C group): +1.7 | Mean change in IBS-QoL subscale Sexual ([4]; C/C group): −1.4 | Mean change in IBS-QoL subscale Social Reaction ([4]; C/C group): +0.3 | Mean change in IBS-QoL, Overall ([4]; C/C group): +0.9 | Mean change in IBS-QoL subscale Body Image ([4]; C/P group): −3.0 | Mean change in IBS-QoL subscale Dysphoria ([4]; C/P group): −6.0 | Mean change in IBS-QoL subscale Food Avoidance ([4]; C/P group): −4.7 | Mean change in IBS-QoL subscale Health Worry ([4]; C/P group): −1.0 | Mean change in IBS-QoL subscale Interference with Activity ([4]; C/P group): −6.4 | Mean change in IBS-QoL subscale Relationship ([4]; C/P group): −3.0 | Mean change in IBS-QoL subscale Sexual ([4]; C/P group): −3.5 | Mean change in IBS-QoL subscale Social Reaction ([4]; C/P group): −5.9 | Mean change in IBS-QoL, Overall ([4]; C/P group): −4.9 | Mean change in IBS-QoL subscale Body Image ([4]; P/C group): +5.0 | Mean change in IBS-QoL subscale Dysphoria ([4]; P/C group): +1.4 | Mean change in IBS-QoL subscale Food Avoidance ([4]; P/C group): +7.9 | Mean change in IBS-QoL subscale Health Worry ([4]; P/C group): +2.1 | Mean change in IBS-QoL subscale Interference with Activity ([4]; P/C group): +7.9 | Mean change in IBS-QoL subscale Relationship ([4]; P/C group): +1.4 | Mean change in IBS-QoL subscale Sexual ([4]; P/C group): +1.4 | Mean change in IBS-QoL subscale Social Reaction ([4]; P/C group): +3.8 | Mean change in IBS-QoL, Overall ([4]; P/C group): +5.1 | IBS-QOL body image, treatment difference ([4]; vs placebo): 6.60 | IBS-QOL dysphoria, treatment difference ([4]; vs placebo): 8.16 | IBS-QOL food avoidance, treatment difference ([4]; vs placebo): 9.64 | IBS-QOL health worry, treatment difference ([4]; vs placebo): 4.05 | IBS-QOL interference with activity, treatment difference ([4]; vs placebo): 10.57 | IBS-QOL overall score, treatment difference in mean change from Baseline at Endpoint ([4]; vs placebo): 7.53 | IBS-QOL relationships, treatment difference ([4]; vs placebo): 4.72 | IBS-QOL sexual, treatment difference ([4]; vs placebo): 5.93 | IBS-QOL social reaction, treatment difference ([4]; vs placebo): 5.53 | AUC(0-inf) (clinical; female, 8 mg): 289 ng·h/mL | AUC (clinical; female, 8 mg): 247 ng·h/mL | AUC(0-inf) (clinical; female): 178 ng·h/mL | AUC (clinical; female): 263 ng·h/mL | Cmax (clinical; female): 95.1 ng/mL | Tmax (clinical; female): 0.88 h | AUC(0-inf) (clinical; male): 228 ng·h/mL | AUC (clinical; male): 196 ng·h/mL | Cmax (clinical; male): 58.8 ng/mL | Tmax (clinical; male): 1.31 h | Vd/F (clinical; male, Vz/F): 243 L | fraction unbound (serum proteins): ~0.04 | CYP3A5 mRNA (CYP3A5): doubled
